The values that follow come from paper PMC10130856 (Heliyon, 2023).

For this test, the target named is hen egg-white lysozyme (HEWL) (Gallus gallus, UniProt P00698). Description: intrinsic tryptophan fluorescence quenching. The format is binding. The settings on record: pH 7.4, 20 mM sodium phosphate, 298.15 K, 5 μM protein; double-log.
Chain of hen egg-white lysozyme (HEWL) (P00698 19-147): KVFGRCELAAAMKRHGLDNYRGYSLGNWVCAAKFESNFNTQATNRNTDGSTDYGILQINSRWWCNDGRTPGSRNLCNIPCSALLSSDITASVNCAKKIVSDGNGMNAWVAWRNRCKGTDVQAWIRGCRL

On to `CCCCC(=O)N(Cc1ccc(-c2ccccc2-c2nn[nH]n2)cc1)[C@H](C(=O)O)C(C)C` [valsartan], for which the “Kb(M^-1)” value is on record as 2.96 × 10^8±0.21 M^−1.
